Reference: ChEMBL document CHEMBL2440042, “Anti-proliferative activity of hydnocarpin, a natural lignan, is associated with the suppression of Wnt/β-catenin signaling pathway in colon cancer cells” (Bioorg Med Chem Lett, 2013)

System: HEK293
Experiment: Inhibition of Wnt/beta-catenin signaling pathway in human HEK293 cells at 20 uM after 24 hrs by dual luciferase reporter gene assay relative to vehicle-treated control
Settings: HEK293, 24 h

Compared with Oc1ccc2c(c1)OCO2, O[C@]12CO[C@H](c3ccc4c(c3)OCO4)[C@H]1CO[C@@H]2c1ccc2c(c1)OCO2 is lower in inhibition at 20 µM: 10.1% for the first, -3.5% for the second.

First: COc1cc([C@@H](O)[C@@H](CO)Oc2ccc(CCCO)cc2O)ccc1O
Second: COc1cc([C@@H]2Oc3c(OC)cc(CCCO)cc3[C@H]2CO)ccc1O [DIHYDRODEHYDRODICONIFERYL ALCOHOL]
The inhibition at 20 µM of the first is lower: -30.7% for the first, 31.4% for the second.

Compared with COc1cc([C@@H]2Oc3c(OC)cc(CCCO[C@@H]4O[C@H](CO)[C@@H](O)[C@H](O)[C@H]4O)cc3[C@H]2CO)ccc1O, COc1cc(C[C@H]2COC(=O)[C@@H]2Cc2ccc(O[C@@H]3O[C@H](CO)[C@@H](O)[C@H](O)[C@H]3O)c(OC)c2)ccc1O [MATAIRESINOSIDE] is higher in inhibition at 20 µM: -14.8% for the first, 9.3% for the second.

Going from CC(=O)/C=C/C=C/c1ccc2c(c1)O[C@@H](CO)[C@H](c1ccc(O)c(O)c1)O2 to O=C/C=C/c1ccc2c(c1)O[C@@H](CO)[C@H](c1ccc(O)c(O)c1)O2 [AMERICANIN A], the inhibition at 20 µM rises from 0.6% to 55%.

First: O=C/C=C/c1ccc2c(c1)OC(c1ccc3c(c1)OC(CO)C(c1ccc(O)c(O)c1)O3)C(CO)O2 (stereo not drawn)
Second: COc1cc(C2Oc3cc([C@H]4Oc5cc(O)cc(O)c5C(=O)[C@@H]4O)ccc3OC2CO)ccc1O (stereo partly drawn) [SILIBININ]
The inhibition at 20 µM of the first is higher: 69.9% for the first, 8.3% for the second.

First: COc1cc([C@H]2c3c(cc(O)c(O)c3OC)C[C@@H](CO)[C@@H]2CO)ccc1O
Second: C/C=C/c1cc(OC)c2c(c1)C(C)C(c1ccc(O)c(OC)c1)O2 (stereo not drawn) [DEHRODIISOEUGENOL]
The inhibition at 20 µM of the first is lower: 2.6% for the first, 28% for the second.

Compared with COC(=O)[C@@H](Cc1ccc(O)c(O)c1)OC(=O)/C=C/c1ccc(O)c2c1[C@@H](C(=O)O[C@H](Cc1ccc(O)c(O)c1)C(=O)OC)[C@H](c1ccc(O)c(O)c1)O2, O=C(/C=C/c1ccc(O)c(O)c1)O[C@H](Cc1ccc(O)c(O)c1)C(=O)O [ROSMARINIC ACID] is higher in inhibition at 20 µM: 10.5% for the first, 27% for the second.

Going from COc1cc([C@H]2OC[C@@H]3[C@@H]2CO[C@H]3c2cc(OC)c(O[C@@H]3O[C@H](CO)[C@@H](O)[C@H](O)[C@H]3O)c(OC)c2)cc(OC)c1O[C@@H]1O[C@H](CO)[C@@H](O)[C@H](O)[C@H]1O to COc1cc([C@H]2OC[C@H]3[C@@H]2CO[C@@H]3c2ccc3c(c2)OCO3)ccc1O[C@@H]1O[C@H](CO)[C@@H](O)[C@H](O)[C@H]1O [SIMPLEXOSIDE], the inhibition at 20 µM falls from 9.8% to -13.6%.

Compared with COc1cc(CC(CO)c2cc(/C=C/CO)cc(OC)c2O[C@@H]2O[C@H](CO)[C@@H](O)[C@H](O)[C@H]2O)ccc1O (stereo partly drawn), COc1cc([C@@H]2OC[C@@H]3[C@H]2CO[C@@H]3c2ccc(OC)c(OC)c2)ccc1O is higher in inhibition at 20 µM: 11.4% for the first, 24.7% for the second.

Going from COc1ccc([C@@H]2OC[C@@H]3[C@H]2CO[C@H]3c2ccc(OC)c(OC)c2)cc1OC [EUDESMINE] to COc1ccc([C@@H]2OC[C@H]3[C@@H]2CO[C@@H]3c2ccc3c(c2)OCO3)cc1OC [FARGESIN], the inhibition at 20 µM rises from 26.3% to 29.8%.

First: COc1cc2c(c(OC)c1OC)-c1c(cc3c(c1OC)OCO3)C[C@H](C)[C@](C)(O)C2 [GOMISIN A]
Second: COc1cc2c(c(OC)c1OC)-c1c(cc3c(c1OC)OCO3)C[C@H](C)[C@H](C)C2 [WUWEIZISU B]
The inhibition at 20 µM of the first is higher: 38.2% for the first, -17.8% for the second.

Going from C=CCc1ccc(O)c(-c2ccc(O)c(CC=C)c2)c1 [HONOKIOL] to C=CCc1ccc(O)c(-c2cc(CC=C)ccc2O)c1 [MAGNOLOL], the inhibition at 20 µM rises from 59.3% to 72.4%.

First: C/C=C(\C)C(=O)O[C@H]1c2cc(OC)c(OC)c(OC)c2-c2c(cc3c(c2O)OCO3)C[C@H](C)[C@]1(C)O [SCHISANTHERIN C]
Second: COc1cc2c(c(OC)c1OC)-c1c(cc(OC)c(OC)c1OC)C[C@](C)(O)[C@@H](C)C2 [SCHIZANDRIN]
The inhibition at 20 µM of the first is lower: -9.3% for the first, 6.2% for the second.

Compared with c1cc2c(cc1[C@H]1OC[C@H]3[C@@H]1CO[C@@H]3c1ccc3c(c1)OCO3)OCO2 [SESAMIN], c1cc2c(cc1O[C@H]1OC[C@H]3[C@@H]1CO[C@@H]3c1ccc3c(c1)OCO3)OCO2 [SESAMOLIN] is lower in inhibition at 20 µM: 39.7% for the first, 11.6% for the second.
